Experimental data as given in patent publication US12540131B2 (Merck Sharp & Dohme LLC, priority 2019, dated 2026).

Target: GST tagged truncated human mutant G2019S LRRK2 (Homo sapiens (Human), UniProt Q5S007, G2019S)
Assay: LRRK2 Km ATP LanthaScreen Assay
Type: biochemical
Conditions: G2019S LRRK2, 134 μM ATP (Km ATP), mean values
Summary of the method: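 Enzyme (GST-tagged, truncated) was preincubated with compound for 15 min at RT in 50 mM Tris pH 8.5, 10 mM MgCl2, 0.01% Brij-35, 1 mM EGTA, 2 mM DTT and 0.05 mM orthovanadate. Fluorescein-LRRKtide and 134 μM ATP (Km) were then added for 90 min. EDTA and Tb-anti-pERM antibody stopped the reaction; the TR-FRET 520/495 ratio gave 4-parameter IC50s, reported as mean pIC50.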

Chain of GST tagged truncated human mutant G2019S LRRK2 (Q5S007 970-2527 G2019S): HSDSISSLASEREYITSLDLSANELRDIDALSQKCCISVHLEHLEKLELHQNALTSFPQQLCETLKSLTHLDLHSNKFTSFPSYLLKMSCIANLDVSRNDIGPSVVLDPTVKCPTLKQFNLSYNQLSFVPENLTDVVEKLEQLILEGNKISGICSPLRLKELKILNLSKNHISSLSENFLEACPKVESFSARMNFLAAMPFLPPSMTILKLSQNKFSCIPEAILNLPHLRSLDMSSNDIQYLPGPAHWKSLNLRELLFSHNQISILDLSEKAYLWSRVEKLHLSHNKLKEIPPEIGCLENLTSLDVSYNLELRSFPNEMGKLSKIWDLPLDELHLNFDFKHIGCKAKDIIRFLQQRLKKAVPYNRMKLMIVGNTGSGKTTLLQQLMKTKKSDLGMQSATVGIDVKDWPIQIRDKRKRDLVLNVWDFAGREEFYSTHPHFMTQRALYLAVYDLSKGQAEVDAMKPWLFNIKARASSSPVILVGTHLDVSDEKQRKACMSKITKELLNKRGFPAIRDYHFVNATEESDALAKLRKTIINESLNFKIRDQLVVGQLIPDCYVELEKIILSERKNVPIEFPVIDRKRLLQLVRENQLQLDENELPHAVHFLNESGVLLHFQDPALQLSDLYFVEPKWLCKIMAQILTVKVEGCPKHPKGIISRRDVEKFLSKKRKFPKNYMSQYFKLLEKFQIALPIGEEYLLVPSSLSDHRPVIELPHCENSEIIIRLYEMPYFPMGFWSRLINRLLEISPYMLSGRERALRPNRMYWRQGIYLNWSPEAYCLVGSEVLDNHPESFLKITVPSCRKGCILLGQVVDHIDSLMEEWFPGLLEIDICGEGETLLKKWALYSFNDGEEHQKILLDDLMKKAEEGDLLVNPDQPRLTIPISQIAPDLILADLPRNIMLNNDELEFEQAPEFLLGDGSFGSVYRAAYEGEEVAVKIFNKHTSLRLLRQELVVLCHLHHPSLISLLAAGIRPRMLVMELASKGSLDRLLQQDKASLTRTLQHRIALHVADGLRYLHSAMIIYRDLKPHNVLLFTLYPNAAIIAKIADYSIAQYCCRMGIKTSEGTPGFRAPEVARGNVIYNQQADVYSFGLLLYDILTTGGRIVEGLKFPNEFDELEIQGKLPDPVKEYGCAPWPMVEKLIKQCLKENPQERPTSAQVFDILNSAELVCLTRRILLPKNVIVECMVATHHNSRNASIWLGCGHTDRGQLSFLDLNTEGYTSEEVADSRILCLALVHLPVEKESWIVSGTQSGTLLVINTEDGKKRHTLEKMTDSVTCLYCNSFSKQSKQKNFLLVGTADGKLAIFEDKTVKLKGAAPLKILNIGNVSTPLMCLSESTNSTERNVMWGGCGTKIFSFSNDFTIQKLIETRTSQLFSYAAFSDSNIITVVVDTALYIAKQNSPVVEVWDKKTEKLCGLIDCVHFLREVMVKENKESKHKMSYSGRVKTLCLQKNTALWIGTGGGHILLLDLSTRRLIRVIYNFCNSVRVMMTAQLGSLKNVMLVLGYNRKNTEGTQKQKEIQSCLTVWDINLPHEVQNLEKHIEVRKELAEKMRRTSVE

Row | SMILES | LRRK2 pIC50 | IC50 (read-out: LRRK2 pIC50 (converted)) [nM]
1 | O[C@@H]1COC[C@@H]1N1CCC(c2cc3nc(Nc4cnn(C56CC(C5)C6)c4)ncc3cc2Cl)CC1 (single isomer, unassigned) [Ex-4.152, (3S,4S) or (3R,4R) 4-[4-(2-{[1-(bicyclo[1.1.1]pentan-1-yl)-1H-pyrazol-4-yl]amino}-6-chloroquinazolin-7-yl)piperidin-1-yl]oxolan-3-ol] | >9.20 | –
2 | O[C@@H]1COC[C@@H]1N1CC[C@@H](c2cc3nc(Nc4cnn(C56CC(C5)C6)c4)ncc3cc2Cl)[C@H](F)C1 (single isomer, unassigned) [Ex-4.153, (3S,4S)(3S,4S) or (3S,4S)(3R,4R) or (3R,4R)(3S,4S) or (3R,4R)(3R,4R) 4-[4-(2-{[1-(bicyclo[1.1.1]pentan-1-yl)-1H-pyrazol-4-yl]amino}-6-chloroquinazolin-7-yl)-3-fluoropiperidin-1-yl]oxolan-3-ol] | >9.20 | –
3 | O[C@H]1COC[C@H]1N1CC[C@@H](c2cc3nc(Nc4cnn(C56CC(C5)C6)c4)ncc3cc2Cl)[C@H](F)C1 (single isomer, unassigned) [Ex-4.154, (3S,4S)(3S,4S) or (3S,4S)(3R,4R) or (3R,4R)(3S,4S) or (3R,4R)(3R,4R) 4-[4-(2-{[1-(bicyclo[1.1.1]pentan-1-yl)-1H-pyrazol-4-yl]amino}-6-chloroquinazolin-7-yl)-3-fluoropiperidin-1-yl]oxolan-3-ol] | 9.06 | –
4 | O[C@@H]1COC[C@@H]1N1CC[C@H](c2cc3nc(Nc4cnn(C56CC(C5)C6)c4)ncc3cc2Cl)[C@@H](F)C1 (single isomer, unassigned) [Ex-4.155, (3S,4S)(3S,4S) or (3S,4S)(3R,4R) or (3R,4R)(3S,4S) or (3R,4R)(3R,4R) 4-[4-(2-{[1-(bicyclo[1.1.1]pentan-1-yl)-1H-pyrazol-4-yl]amino}-6-chloroquinazolin-7-yl)-3-fluoropiperidin-1-yl]oxolan-3-ol] | >9.20 | –
5 | O[C@H]1COC[C@H]1N1CC[C@H](c2cc3nc(Nc4cnn(C56CC(C5)C6)c4)ncc3cc2Cl)[C@@H](F)C1 (single isomer, unassigned) [Ex-4.156, (3S,4S)(3S,4S) or (3S,4S)(3R,4R) or (3R,4R)(3S,4S) or (3R,4R)(3R,4R) 4-[4-(2-{[1-(bicyclo[1.1.1]pentan-1-yl)-1H-pyrazol-4-yl]amino}-6-chloroquinazolin-7-yl)-3-fluoropiperidin-1-yl]oxolan-3-ol] | >9.20 | –
6 | OC1CCCC1N1CC[C@@H](c2cc3nc(Nc4cnn(C5CC5)c4Cl)ncc3cc2Cl)[C@H](F)C1 (single isomer, unassigned) [Ex-4.157, (1S,2R)(3S,4S) or (1R,2S)(3S,4S) or (1R,2R)(3S,4S) or (1S,2S)(3S,4S) or (1S,2R)(3R,4R) or (1R,2S)(3R,4R) or (1R,2R)(3R,4R) or (1S,2S)(3R,4R) 2-(4-{6-chloro-2-[(5-chloro-1-cyclopropyl-1H-pyrazol-4-yl)amino]quinazolin-7-yl}-3-fluoropiperidin-1-yl)cyclopentan-1-ol] | 8.38 | –
7 | OC1CCCC1N1CC[C@H](c2cc3nc(Nc4cnn(C5CC5)c4Cl)ncc3cc2Cl)[C@@H](F)C1 (single isomer, unassigned) [Ex-4.158, (1S,2R)(3S,4S) or (1R,2S)(3S,4S) or (1R,2R)(3S,4S) or (1S,2S)(3S,4S) or (1S,2R)(3R,4R) or (1R,2S)(3R,4R) or (1R,2R)(3R,4R) or (1S,2S)(3R,4R) 2-(4-{6-chloro-2-[(5-chloro-1-cyclopropyl-1H-pyrazol-4-yl)amino]quinazolin-7-yl}-3-fluoropiperidin-1-yl)cyclopentan-1-ol] | 8.99 | –
8 | Cc1c(Nc2ncc3cc(Cl)c([C@@H]4CCN(C5CCCC5O)C[C@H]4F)cc3n2)cnn1C1CC1 (single isomer, unassigned) [Ex-4.159, (1S,2R)(3S,4S) or (1R,2S)(3S,4S) or (1R,2R)(3S,4S) or (1S,2S)(3S,4S) or (1S,2R)(3R,4R) or (1R,2S)(3R,4R) or (1R,2R)(3R,4R) or (1S,2S)(3R,4R) 2-(4-{6-chloro-2-[(1-cyclopropyl-5-methyl-1H-pyrazol-4-yl)amino]quinazolin-7-yl}-3-fluoropiperidin-1-yl)cyclopentan-1-ol] | >9.20 | –
9 | Cc1c(Nc2ncc3cc(Cl)c([C@H]4CCN(C5CCCC5O)C[C@@H]4F)cc3n2)cnn1C1CC1 (single isomer, unassigned) [Ex-4.160, (1S,2R)(3S,4S) or (1R,2S)(3S,4S) or (1R,2R)(3S,4S) or (1S,2S)(3S,4S) or (1S,2R)(3R,4R) or (1R,2S)(3R,4R) or (1R,2R)(3R,4R) or (1S,2S)(3R,4R) 2-(4-{6-chloro-2-[(1-cyclopropyl-5-methyl-1H-pyrazol-4-yl)amino]quinazolin-7-yl}-3-fluoropiperidin-1-yl)cyclopentan-1-ol] | >9.20 | –
10 | Cc1c(Nc2ncc3cc(Cl)c([C@@H]4CCN([C@@H]5COC[C@@H]5O)C[C@H]4F)cc3n2)cnn1C12CC(C1)C2 (single isomer, unassigned) [Ex-4.161, (3S,4S)(3S,4S) or (3S,4S)(3R,4R) or (3R,4R)(3S,4S) or (3R,4R)(3R,4R) 4-[4-(2-{[1-(bicyclo[1.1.1]pentan-1-yl)-5-methyl-1H-pyrazol-4-yl]amino}-6-chloroquinazolin-7-yl)-3-fluoropiperidin-1-yl]oxolan-3-ol] | 8.92 | –
11 | Cc1c(Nc2ncc3cc(Cl)c([C@@H]4CCN([C@H]5COC[C@H]5O)C[C@H]4F)cc3n2)cnn1C12CC(C1)C2 (single isomer, unassigned) [Ex-4.162, (3S,4S)(3S,4S) or (3S,4S)(3R,4R) or (3R,4R)(3S,4S) or (3R,4R)(3R,4R) 4-[4-(2-{[1-(bicyclo[1.1.1]pentan-1-yl)-5-methyl-1H-pyrazol-4-yl]amino}-6-chloroquinazolin-7-yl)-3-fluoropiperidin-1-yl]oxolan-3-ol] | >9.20 | –
12 | Cc1cc2cnc(Nc3cnn(C45CC(C4)C5)c3C)nc2cc1[C@@H]1CCN([C@H]2COC[C@H]2O)C[C@H]1F (single isomer, unassigned) [Ex-4.164, (3S,4S)(3S,4S) or (3S,4S)(3R,4R) or (3R,4R)(3S,4S) or (3R,4R)(3R,4R) 4-[4-(2-{[1-(bicyclo[1.1.1]pentan-1-yl)-5-methyl-1H-pyrazol-4-yl]amino}-6-methylquinazolin-7-yl)-3-fluoropiperidin-1-yl]oxolan-3-ol] | >9.20 | –
13 | Cc1cc2cnc(Nc3cnn(C45CC(C4)C5)c3C)nc2cc1[C@@H]1CCN([C@@H]2COC[C@@H]2O)C[C@H]1F (single isomer, unassigned) [Ex-4.165, (3S,4S)(3S,4S) or (3S,4S)(3R,4R) or (3R,4R)(3S,4S) or (3R,4R)(3R,4R) 4-[4-(2-{[1-(bicyclo[1.1.1]pentan-1-yl)-5-methyl-1H-pyrazol-4-yl]amino}-6-methylquinazolin-7-yl)-3-fluoropiperidin-1-yl]oxolan-3-ol] | 8.67 | –
14 | Clc1cc2cnc(Nc3cnn(C4CC4)c3Cl)nc2cc1C1CCN(C2COC(C3CC3)C2)CC1 (single isomer, unassigned) [Ex-4.166, (3R,5R) or (3S,5R) or (3R,5S) or (3S,5S) 6-chloro-N-(5-chloro-1-cyclopropyl-1H-pyrazol-4-yl)-7-[1-(5-cyclopropyloxolan-3-yl)piperidin-4-yl]quinazolin-2-amine] | 9.17 | –
15 | Clc1cc2cnc(Nc3cnn(C4CC4)c3Cl)nc2cc1C1CCN(C2COC(C3CC3)C2)CC1 (single isomer, unassigned) [Ex-4.167, (3R,5R) or (3S,5R) or (3R,5S) or (3S,5S) 6-chloro-N-(5-chloro-1-cyclopropyl-1H-pyrazol-4-yl)-7-[1-(5-cyclopropyloxolan-3-yl)piperidin-4-yl]quinazolin-2-amine] | 8.14 | –
16 | Cc1c(Nc2ncc3cc(Cl)c(C4CCN(C5CCC(CC#N)C5)CC4)cc3n2)cnn1C1CC1 (single isomer, unassigned) [Ex-4.168, (1R,3R) or (1S,3R) or (1R,3S) or (1S,3S) [3-(4-{6-chloro-2-[(1-cyclopropyl-5-methyl-1H-pyrazol-4-yl)amino]quinazolin-7-yl}piperidin-1-yl)cyclopentyl]acetonitrile] | 8.88 | –
17 | Cc1c(Nc2ncc3cc(Cl)c(C4CCN(C5CCC(CC#N)C5)CC4)cc3n2)cnn1C1CC1 (single isomer, unassigned) [Ex-4.169, (1R,3R) or (1S,3R) or (1R,3S) or (1S,3S) [3-(4-{6-chloro-2-[(1-cyclopropyl-5-methyl-1H-pyrazol-4-yl)amino]quinazolin-7-yl}piperidin-1-yl)cyclopentyl]acetonitrile] | 8.25 | –
18 | Cc1c(Nc2ncc3cc(Cl)c(C4CCN(C5CCC(CC#N)C5)CC4)cc3n2)cnn1C1CC1 (single isomer, unassigned) [Ex-4.170, (1R,3R) or (1S,3R) or (1R,3S) or (1S,3S) [3-(4-{6-chloro-2-[(1-cyclopropyl-5-methyl-1H-pyrazol-4-yl)amino]quinazolin-7-yl}piperidin-1-yl)cyclopentyl]acetonitrile] | 8.81 | –
19 | Cc1c(Nc2ncc3cc(Cl)c(C4CCN(C5CCC(CC#N)C5)CC4)cc3n2)cnn1C1CC1 (single isomer, unassigned) [Ex-4.171, (1R,3R) or (1S,3R) or (1R,3S) or (1S,3S) [3-(4-{6-chloro-2-[(1-cyclopropyl-5-methyl-1H-pyrazol-4-yl)amino]quinazolin-7-yl}piperidin-1-yl)cyclopentyl]acetonitrile] | 8.51 | –
20 | Cc1c(Nc2ncc3cc(Cl)c(C4CCN(C5COC(C)(C)C5)CC4)cc3n2)cnn1C1CC1 (single isomer, unassigned) [Ex-4.173, (R) or (S) 6-chloro-N-(1-cyclopropyl-5-methyl-1H-pyrazol-4-yl)-7-[1-(5,5-dimethyloxolan-3-yl)piperidin-4-yl]quinazolin-2-amine] | – | 3.72
